Holding throughout (format): cell-based
Test [1] relates to human melanoma cells A375. In words: MTT assay, tumor cell growth inhibition, A375. Conditions: A-375, 48 hours. From the text:
(§1) MTT Assay—Inhibitory Effect of 6-dithio-substituted-2′-deoxyguanosine Derivatives on Tumor Cell Growth
(§2) We measured the tumor cell growth inhibitory activity of candidate compounds by MTT assay. Human tumor cells in logarithmic growth phase were digested with 0.25% pancreatin for a certain time, centrifuged, re-suspended and counted with a blood cell counting plate to prepare a cell suspension, and the cell suspension was adjusted to 1.0×10^4-1×10^5 cells/mL. The cell suspension was inoculated into a 96-well culture plate, 100 μL per well, and cultured in an incubator with saturated humidity, 37° C. and 5% CO2 for 24 hours until the cells completely adhered to the wall. The test compound was diluted to the required concentration with a complete medium, the complete medium of the 96-well culture plate inoculated with human tumor cells was sucked out, a medicament-containing medium was added, 100 μL per well, the final concentration of DMSO was less than 0.1%, and the culture plate was put in an incubator for 48 hours. 10 μl of MTT was added to each well of the 96-well plate, and the culture was continued for 4 h. The culture was stopped and the culture solution in the well was carefully sucked off. 150 μL DMSO was added to each well, and shaken at a low speed for 10 min on a shaking table, so that the crystal was fully dissolved. The absorbance of each well was measured at OD 570 nm of an enzyme-linked immunosorbent assay instrument. At the same time, zeroing wells (the culture medium, MTT, dimethyl sulfoxide) and control wells (cells, a drug dissolution medium with the same concentration, a culture solution, MTT, dimethyl sulfoxide) were set up, and the cell growth inhibitory activity was calculated with the corresponding solvents as the control. 3-6 multiple wells in each group were set up with repetition of several times. Cell viability of control=(Adrug group−Azeroing well)/(Acontrol well−Azeroing well)*100%. Drawing was drawn, the data were fitted into a concentration response curve with a variable slope, and IC50 value was calculated from the curve.
For orientation: Formazan colour is commonly taken as a measure of viable cells.

Test [2] has as its system human liver cancer cells HepG2. The experiment in a line: MTT assay, tumor cell growth inhibition, HepG2. Conditions: 48 hours.
Source text: as §1, §2

The subject of test [3] is human colon cancer cells HCT116. In words: MTT assay, tumor cell growth inhibition, HCT116. The following applies: HCT-116, 48 hours.
Source text: as §1, §2

For test [4], the system named is human non-small cell lung cancer A549. In words: MTT assay, tumor cell growth inhibition, A549. Conditions: 48 hours.
Source text: as §1, §2

Test [5] concerns human leukemia cells K562. The experiment in a line: MTT assay, tumor cell growth inhibition, K562. Conditions: 48 hours.
Source text: as §1, §2

The structures appear in SMILES notation.

One may read the IC50 as the concentration needed to halve the response being measured. Low values mean higher potency, high ones lower potency. Consider `CC(C)SSc1nc(N)nc2c1ncn2[C@H]1C[C@H](O)[C@@H](CO)O1` [D, 6-(isopropyldithio)-2′-deoxyguanosine], for which the IC50 was 0.37 µM in test [1]; below 10 µM in test [2]; 1.09 µM in test [3]; 31.1 µM in test [4]; 15.7 µM in test [5].

Source of the values: patent US11247994B2, “6-dithio-substituted-2′-deoxyguanosine compound, preparation method thereof and use thereof” (ZHEJIANG UNIVERSITY, priority 2018, dated 2022).
